ChEMBL document CHEMBL1201862, “PubChem BioAssay data set” (2004)
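48-hour exposure; five concentrations; linearly interpolated endpoints. The concentration for 50% growth inhibition is given as GI50.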 The source made the active and inactive calls. Rule as the data show it: active = GI50 up to about 1.1 µM and inactive = higher.

How the values were obtained:
Test in all cases: NCI anticancer screen, dose series, 48 h
[1] = system: DMS-114
[2] = system: SR
[3] = system: SNB-78
[4] = system: SF-268
[5] = system: A549
[6] = system: CAKI-1
[7] = system: SNB-19
[8] = system: SK-MEL-28
[9] = system: ACHN
[10] = system: HT-29
[11] = system: HL-60
[12] = system: LOX IMVI
[13] = system: OVCAR-3
[14] = system: DLD-1

Structure (SMILES)	GI50 [1]	GI50 [2]	GI50 [3]	GI50 [4]	GI50 [5]	GI50 [6]	GI50 [7]	GI50 [8]	GI50 [9]	GI50 [10]	GI50 [11]	GI50 [12]	GI50 [13]	GI50 [14]
COc1cc(/C=N/c2nncs2)ccc1O	> 100 µM (inactive)	> 100 µM (inactive)	> 100 µM (inactive)	> 100 µM (inactive)	> 100 µM (inactive)	> 100 µM (inactive)	> 100 µM (inactive)	> 100 µM (inactive)	> 100 µM (inactive)	> 100 µM (inactive)	> 100 µM (inactive)	–	–	–
COC(=O)C(CC=O)C(=O)C(=O)Nc1cccc(C(F)(F)F)c1 (stereo not drawn)	> 100 µM (inactive)	> 100 µM (inactive)	> 100 µM (inactive)	> 100 µM (inactive)	> 100 µM (inactive)	> 100 µM (inactive)	> 100 µM (inactive)	> 100 µM (inactive)	> 100 µM (inactive)	> 100 µM (inactive)	> 100 µM (inactive)	> 100 µM (inactive)	> 100 µM (inactive)	> 100 µM (inactive)
CC(C)(C)c1ccc(Oc2ccc(C#N)c(C#N)c2)c(C(C)(C)C)c1	19.6 µM (inactive)	18.7 µM (inactive)	42.5 µM (inactive)	32.7 µM (inactive)	60.4 µM (inactive)	56.4 µM (inactive)	49.5 µM (inactive)	51.5 µM (inactive)	34.9 µM (inactive)	34.3 µM (inactive)	10.4 µM (inactive)	30.6 µM (inactive)	40.1 µM (inactive)	37 µM (inactive)
O=C(O)CCSC(=O)Nc1ccccc1	–	> 100 µM (inactive)	> 100 µM (inactive)	44.8 µM (inactive)	> 100 µM (inactive)	> 100 µM (inactive)	> 100 µM (inactive)	> 100 µM (inactive)	97.9 µM (inactive)	> 100 µM (inactive)	> 100 µM (inactive)	> 100 µM (inactive)	> 100 µM (inactive)	> 100 µM (inactive)
COc1cccc(NC(=O)CC(=O)N2N=C(N(CCC#N)c3ccc(Cl)cc3)CC2c2ccccc2)c1 (stereo not drawn)	> 100 µM (inactive)	> 100 µM (inactive)	> 100 µM (inactive)	> 100 µM (inactive)	> 100 µM (inactive)	> 100 µM (inactive)	> 100 µM (inactive)	> 100 µM (inactive)	> 100 µM (inactive)	> 100 µM (inactive)	> 100 µM (inactive)	> 100 µM (inactive)	> 100 µM (inactive)	> 100 µM (inactive)
Cc1ccc(-c2nc3ccccc3c(=O)n2NCC2(O)OCC(O)C(O)C2O)cc1 (stereo not drawn)	> 100 µM (inactive)	> 100 µM (inactive)	> 100 µM (inactive)	> 100 µM (inactive)	> 100 µM (inactive)	> 100 µM (inactive)	> 100 µM (inactive)	> 100 µM (inactive)	> 100 µM (inactive)	> 100 µM (inactive)	> 100 µM (inactive)	> 100 µM (inactive)	> 100 µM (inactive)	–
Cc1cc2c(=O)cc(-c3ccc(C(=O)O)cc3)oc2c(C(N)=O)c1C	> 100 µM (inactive)	–	> 100 µM (inactive)	> 100 µM (inactive)	> 100 µM (inactive)	–	> 100 µM (inactive)	> 100 µM (inactive)	> 100 µM (inactive)	> 100 µM (inactive)	–	> 100 µM (inactive)	> 100 µM (inactive)	> 100 µM (inactive)
O=C(c1cc(O)ccc1O)c1ccccc1C(Cl)(Cl)Cl	32 µM (inactive)	71.8 µM (inactive)	> 100 µM (inactive)	> 100 µM (inactive)	> 100 µM (inactive)	93.1 µM (inactive)	> 100 µM (inactive)	–	> 100 µM (inactive)	> 100 µM (inactive)	28.6 µM (inactive)	–	79.1 µM (inactive)	–
COC(=O)c1c(OC)cccc1C(=O)O	> 100 µM (inactive)	–	> 100 µM (inactive)	> 100 µM (inactive)	> 100 µM (inactive)	> 100 µM (inactive)	> 100 µM (inactive)	–	> 100 µM (inactive)	> 100 µM (inactive)	> 100 µM (inactive)	–	> 100 µM (inactive)	–
COc1ccc2c3ccc4c(c3n(C)c2c1)C(=O)c1ccccc1C4=O	> 100 µM (inactive)	> 100 µM (inactive)	> 100 µM (inactive)	56.6 µM (inactive)	74.5 µM (inactive)	–	> 100 µM (inactive)	> 100 µM (inactive)	51.3 µM (inactive)	11.7 µM (inactive)	> 100 µM (inactive)	–	–	> 100 µM (inactive)
C[C@]12CC[C@H](O)CC1=CC[C@@H]1C2CC[C@]2(C)NC(=O)C(C#N)CC12 (stereo partly drawn)	> 100 µM (inactive)	–	> 100 µM (inactive)	–	> 100 µM (inactive)	> 100 µM (inactive)	–	66.8 µM (inactive)	28.6 µM (inactive)	> 100 µM (inactive)	> 100 µM (inactive)	–	> 100 µM (inactive)	> 100 µM (inactive)
O=S1(=O)OCCOS(=O)(=O)C1I	> 100 µM (inactive)	91.8 µM (inactive)	> 100 µM (inactive)	92.5 µM (inactive)	> 100 µM (inactive)	> 100 µM (inactive)	77.4 µM (inactive)	> 100 µM (inactive)	–	> 100 µM (inactive)	53.2 µM (inactive)	–	> 100 µM (inactive)	> 100 µM (inactive)
Cc1cc(O)c2c(c1)C(O)(c1ccc3c(c1O)C(=O)c1c(O)cc(C)cc1C3(O)C1OC(CO)C(O)C(O)C1O)c1cccc(O)c1C2=O (stereo not drawn)	9.91 µM (inactive)	8.15 µM (inactive)	16.1 µM (inactive)	20.1 µM (inactive)	18.3 µM (inactive)	17.7 µM (inactive)	16.4 µM (inactive)	15 µM (inactive)	13 µM (inactive)	20.5 µM (inactive)	3.09 µM (inactive)	11.4 µM (inactive)	10.5 µM (inactive)	11.5 µM (inactive)
N#CC(/C(=N\NC(N)=S)C(=O)NC1C2CC3CC(C2)CC1C3)c1ccc(Cl)cc1 (stereo not drawn)	> 100 µM (inactive)	> 100 µM (inactive)	> 100 µM (inactive)	> 100 µM (inactive)	> 100 µM (inactive)	> 100 µM (inactive)	> 100 µM (inactive)	> 100 µM (inactive)	> 100 µM (inactive)	> 100 µM (inactive)	> 100 µM (inactive)	> 100 µM (inactive)	> 100 µM (inactive)	> 100 µM (inactive)
CCCNCc1nc2ccc(Br)cc2c(=O)n1CCC	10.8 µM (inactive)	11.7 µM (inactive)	17.5 µM (inactive)	13.6 µM (inactive)	16.6 µM (inactive)	–	16.8 µM (inactive)	15.3 µM (inactive)	16.1 µM (inactive)	15.1 µM (inactive)	6.53 µM (inactive)	4.93 µM (inactive)	18.4 µM (inactive)	8.09 µM (inactive)
CCC(=O)N1C(=O)OCC1C(C)C (stereo not drawn)	> 100 µM (inactive)	–	> 100 µM (inactive)	> 100 µM (inactive)	> 100 µM (inactive)	> 100 µM (inactive)	> 100 µM (inactive)	–	> 100 µM (inactive)	> 100 µM (inactive)	> 100 µM (inactive)	> 100 µM (inactive)	> 100 µM (inactive)	> 100 µM (inactive)
Clc1ccc(/C=C/c2csnn2)cc1	> 100 µM (inactive)	–	> 100 µM (inactive)	> 100 µM (inactive)	> 100 µM (inactive)	> 100 µM (inactive)	> 100 µM (inactive)	> 100 µM (inactive)	> 100 µM (inactive)	> 100 µM (inactive)	> 100 µM (inactive)	> 100 µM (inactive)	> 100 µM (inactive)	> 100 µM (inactive)
C[C@H]1NC(=O)C2CCCCN2C(=O)CN(C)C(=O)CNC(=O)C2CCCCN2C(=O)[C@@H](NC(=O)c2nc3ccccc3cc2O)[C@@H](C)NC(=O)C2CCCCN2C(=O)CN(C)C(=O)CNC(=O)[C@@H]2CCCCN2C(=O)C1NC(=O)c1nc2ccccc2cc1O (stereo partly drawn)	0.23 µM (active)	–	0.0865 µM (active)	0.186 µM (active)	0.318 µM (active)	0.136 µM (active)	0.241 µM (active)	0.212 µM (active)	0.232 µM (active)	0.347 µM (active)	2.03 µM (inactive)	0.169 µM (active)	0.209 µM (active)	–
CN1OC2OC(=O)OC2[C@H]1[C@H]1O[C@H](c2ccccc2)OC1(C)c1cc(OC(=O)c2ccccc2)ccc1OC(=O)c1ccccc1 (stereo partly drawn)	> 50 µM (inactive)	> 50 µM (inactive)	> 50 µM (inactive)	> 50 µM (inactive)	> 50 µM (inactive)	> 50 µM (inactive)	> 50 µM (inactive)	> 50 µM (inactive)	> 50 µM (inactive)	> 50 µM (inactive)	> 50 µM (inactive)	> 50 µM (inactive)	> 50 µM (inactive)	> 50 µM (inactive)
COC1=CC(C)C2C[C@H]3O[C@H](O)C[C@H]4C(C)C(=O)C(O)C([C@@]2(C)C1=O)[C@@]34C (stereo partly drawn)	> 100 µM (inactive)	–	> 100 µM (inactive)	–	> 100 µM (inactive)	> 100 µM (inactive)	–	> 100 µM (inactive)	> 100 µM (inactive)	> 100 µM (inactive)	–	> 100 µM (inactive)	> 100 µM (inactive)	> 100 µM (inactive)
COC(=O)C1CC(OC(C)=O)C=C2C(=O)CCC21 (stereo not drawn)	15 µM (inactive)	14 µM (inactive)	24.1 µM (inactive)	16.6 µM (inactive)	37.2 µM (inactive)	27 µM (inactive)	26.2 µM (inactive)	17.1 µM (inactive)	20.2 µM (inactive)	–	16.1 µM (inactive)	–	13.9 µM (inactive)	14.5 µM (inactive)
